# How the values were obtained:
# human P2Y11-R = target: T1, human P2Y11-R (Homo sapiens, UniProt Q96G91); test: [Ca^2+]i response of 1321N1 astrocytoma cells expressing P2Y11-R GFP; assay type: cell-based
# T1 construct: expressed in transfected cells; host or cells: 1321N1 astrocytoma cells
# T1 sequence (Q96G91 1-374): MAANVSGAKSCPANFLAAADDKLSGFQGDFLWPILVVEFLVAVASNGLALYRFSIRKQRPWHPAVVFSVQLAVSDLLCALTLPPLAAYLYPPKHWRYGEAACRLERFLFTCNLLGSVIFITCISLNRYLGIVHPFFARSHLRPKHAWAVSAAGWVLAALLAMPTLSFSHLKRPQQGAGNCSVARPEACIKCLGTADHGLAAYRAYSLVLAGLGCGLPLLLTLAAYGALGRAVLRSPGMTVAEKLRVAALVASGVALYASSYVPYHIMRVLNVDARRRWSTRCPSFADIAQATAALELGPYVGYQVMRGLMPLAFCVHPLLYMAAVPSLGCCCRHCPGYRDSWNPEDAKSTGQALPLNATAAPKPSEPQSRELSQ
# human NTPDase2 = target: T2, human NTPDase2 (Homo sapiens, UniProt Q9Y5L3); test: Hydrolysis by human NTPDase2; assay type: in vitro ADME; details: for Hydrolysis by NTPDase2: 100 μM, 1 h, activity with 100 μM ATP = 100%
# T2 construct: made in house; host or cells: COS-7 cells (transfected; protein extract)
# T2 sequence (Q9Y5L3 1-495): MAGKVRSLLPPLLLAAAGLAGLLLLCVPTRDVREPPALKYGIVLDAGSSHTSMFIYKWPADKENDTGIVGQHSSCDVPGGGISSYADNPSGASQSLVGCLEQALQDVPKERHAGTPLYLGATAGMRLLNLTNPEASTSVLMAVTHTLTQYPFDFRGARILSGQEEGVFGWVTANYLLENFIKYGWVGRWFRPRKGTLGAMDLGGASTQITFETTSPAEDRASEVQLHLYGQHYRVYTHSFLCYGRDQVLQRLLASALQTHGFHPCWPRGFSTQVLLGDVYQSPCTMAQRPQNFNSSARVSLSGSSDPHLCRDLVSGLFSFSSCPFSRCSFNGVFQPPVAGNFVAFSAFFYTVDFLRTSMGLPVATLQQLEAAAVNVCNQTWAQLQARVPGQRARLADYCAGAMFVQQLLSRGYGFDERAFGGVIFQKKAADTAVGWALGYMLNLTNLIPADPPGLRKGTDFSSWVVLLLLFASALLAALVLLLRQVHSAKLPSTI
# human NTPDase8 [1] = target: T3, human NTPDase8 (Homo sapiens, UniProt Q5MY95); test: Hydrolysis by human NTPDase8; assay type: in vitro ADME; details: for Hydrolysis by NTPDase8: 100 μM, 1 h, activity with 100 μM ATP = 100%
# T3 construct: made in house; host or cells: COS-7 cells (transfected; protein extract)
# T3 sequence (Q5MY95 1-495): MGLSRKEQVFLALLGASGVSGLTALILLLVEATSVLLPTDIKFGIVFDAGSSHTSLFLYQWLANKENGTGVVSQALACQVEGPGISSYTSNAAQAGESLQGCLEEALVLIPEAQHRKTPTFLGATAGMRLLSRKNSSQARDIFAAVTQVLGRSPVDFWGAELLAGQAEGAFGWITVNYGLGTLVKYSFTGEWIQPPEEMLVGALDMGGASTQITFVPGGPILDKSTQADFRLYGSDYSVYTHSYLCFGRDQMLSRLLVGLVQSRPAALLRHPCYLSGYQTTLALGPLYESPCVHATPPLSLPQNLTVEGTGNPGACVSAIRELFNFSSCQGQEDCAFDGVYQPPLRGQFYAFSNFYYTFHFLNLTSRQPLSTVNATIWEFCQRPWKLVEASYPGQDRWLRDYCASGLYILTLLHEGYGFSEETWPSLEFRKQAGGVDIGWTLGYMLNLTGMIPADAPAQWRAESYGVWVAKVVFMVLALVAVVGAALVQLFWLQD
# human NTPDase8 [2] = target: T3, human NTPDase8; test: Inhibition of NTPDase8 activity; assay type: biochemical; details: for effect on human NTPDase8 activity: Table 5, ATP and analogue 100 μM, 100% activity = ATP alone; for inhibition of the hydrolysis of ATP by NTPDase8: analogue and ATP 100 μM
# human NTPDase1 [3] = target: T4, human NTPDase1 (Homo sapiens, UniProt P49961); test: Inhibition of NTPDase1 activity; details: for effect on human NTPDase1 activity: Table 5, ATP and analogue 100 μM, 100% activity = ATP alone, read as inhibition; for inhibition of the hydrolysis of ATP by NTPDase1: analogue and ATP 100 μM
# T4 sequence (P49961 1-510): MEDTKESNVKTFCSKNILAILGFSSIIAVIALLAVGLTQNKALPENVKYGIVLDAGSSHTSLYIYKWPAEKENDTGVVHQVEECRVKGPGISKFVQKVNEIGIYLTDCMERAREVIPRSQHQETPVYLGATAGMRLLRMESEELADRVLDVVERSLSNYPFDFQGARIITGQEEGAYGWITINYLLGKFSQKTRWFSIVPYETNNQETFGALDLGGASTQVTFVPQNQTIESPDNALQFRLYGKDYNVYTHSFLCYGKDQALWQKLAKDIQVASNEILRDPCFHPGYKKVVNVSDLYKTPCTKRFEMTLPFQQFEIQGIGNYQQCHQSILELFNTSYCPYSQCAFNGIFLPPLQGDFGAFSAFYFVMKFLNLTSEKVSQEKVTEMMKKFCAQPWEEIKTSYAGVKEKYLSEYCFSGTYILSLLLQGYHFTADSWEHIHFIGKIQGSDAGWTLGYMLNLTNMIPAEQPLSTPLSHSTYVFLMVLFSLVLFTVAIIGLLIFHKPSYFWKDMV
# human NTPDase1 [4] = target: T4, human NTPDase1; test: Hydrolysis by human NTPDase1; assay type: in vitro ADME; parameters: made in house; host or cells: COS-7 cells (transfected; protein extract); details: for Hydrolysis by NTPDase1: 100 μM, 1 h, activity with 100 μM ATP = 100%
# human NTPDase3 = target: T5, human NTPDase3 (Homo sapiens, UniProt O75355); test: Hydrolysis by human NTPDase3; assay type: in vitro ADME; parameters: made in house; host or cells: COS-7 cells (transfected; protein extract); details: for Hydrolysis by NTPDase3: 100 μM, 1 h, activity with 100 μM ATP = 100%
# T5 sequence (O75355 1-529): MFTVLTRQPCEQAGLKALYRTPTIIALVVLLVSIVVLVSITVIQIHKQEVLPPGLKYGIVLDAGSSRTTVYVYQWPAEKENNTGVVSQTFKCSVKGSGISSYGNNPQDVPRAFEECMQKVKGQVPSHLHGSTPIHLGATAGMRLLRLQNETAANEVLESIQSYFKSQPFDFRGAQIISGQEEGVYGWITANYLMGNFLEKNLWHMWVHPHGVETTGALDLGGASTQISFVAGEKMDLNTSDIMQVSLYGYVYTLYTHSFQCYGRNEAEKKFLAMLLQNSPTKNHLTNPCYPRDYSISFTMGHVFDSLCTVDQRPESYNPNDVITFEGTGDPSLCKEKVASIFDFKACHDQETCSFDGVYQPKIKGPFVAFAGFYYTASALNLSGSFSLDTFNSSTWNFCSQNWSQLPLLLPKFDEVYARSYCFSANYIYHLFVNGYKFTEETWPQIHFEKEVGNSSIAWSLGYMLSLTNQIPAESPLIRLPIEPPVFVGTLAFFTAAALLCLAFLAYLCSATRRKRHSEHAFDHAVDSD
molecule,measurement,setting,value
"Nc1ncnc2c1ncn2[C@@H]1O[C@H](COP(O)(=S)OP(=O)(O)C(Cl)(Cl)P(=O)(O)O)[C@@H](O)[C@H]1O (single isomer, unassigned; isomer a) [APPCCl2P-α-S (isomer A), adenosine 5′-[Pα-thio]-β,γ-(dichloromethylene)triphosphate]",agonism at the P2Y11-receptor,human P2Y11-R,not an agonist
same,Hydrolysis by NTPDase2,human NTPDase2; listed as APPCCl2P-α-S A,5.2 ± 0.1%
same,Hydrolysis by NTPDase8,human NTPDase8 [1]; listed as APPCCl2P-α-S A,4.3 ± 0.1%
same,effect on human NTPDase8 activity,human NTPDase8 [2]; listed as APPCCl2P-α-S A,4.9 ± 0.2%
same,inhibition of the hydrolysis of ATP by NTPDase8,human NTPDase8 [2],did not interfere
same,effect on human NTPDase1 activity,human NTPDase1 [3]; listed as APPCCl2P-α-S A,0.5 ± 0.01%
same,inhibition of the hydrolysis of ATP by NTPDase1,human NTPDase1 [3],did not interfere
same,Hydrolysis by NTPDase1,human NTPDase1 [4]; listed as APPCCl2P-α-S A,5.3 ± 0.2%
same,Hydrolysis by NTPDase3,human NTPDase3; listed as APPCCl2P-α-S A,5.2 ± 0.2%
adenosine-5′-tetrathiobisphosphonate,Relative hydrolysis by NTPDase2,human NTPDase2,1 ± 0.2 % ± SD of ADP or AP2A hydrolysis
same,Relative hydrolysis by NTPDase8,human NTPDase8 [1],7 ± 1 % ± SD of ADP or AP2A hydrolysis
same,inhibition of the hydrolysis of ATP by NTPDase8,human NTPDase8 [2],49%
same,inhibition of the hydrolysis of ATP by NTPDase1,human NTPDase1 [3],54%
same,Relative hydrolysis by NTPDase1,human NTPDase1 [4],1 ± 0.2 % ± SD of ADP or AP2A hydrolysis
"Nc1ncnc2c1ncn2[C@@H]1O[C@H](COP(O)(=S)OP(=O)(O)CP(=O)(O)O)[C@@H](O)[C@H]1O (single isomer, unassigned; isomer b) [APPCP-α-S (isomer B), adenosine 5′-[Pα-thio]-β,γ-methylenetriphosphate]",times more potent than ATP at the P2Y11 receptor,human P2Y11-R,7 fold
same,Hydrolysis by NTPDase2,human NTPDase2; listed as APPCP-α-S B,5.5 ± 0.3%
same,Hydrolysis by NTPDase8,human NTPDase8 [1]; listed as APPCP-α-S B,5.3 ± 0.2%
same,effect on human NTPDase8 activity,human NTPDase8 [2]; listed as APPCP-α-S B,0.5 ± 0.01%
same,inhibition of the hydrolysis of ATP by NTPDase8,human NTPDase8 [2],did not interfere
same,effect on human NTPDase1 activity,human NTPDase1 [3]; listed as APPCP-α-S B,0.5 ± 0.02%
same,inhibition of the hydrolysis of ATP by NTPDase1,human NTPDase1 [3],did not interfere
same,Hydrolysis by NTPDase1,human NTPDase1 [4]; listed as APPCP-α-S B,5.4 ± 0.2%
same,Hydrolysis by NTPDase3,human NTPDase3; listed as APPCP-α-S B,4.8 ± 0.2%
"Nc1ncnc2c1ncn2[C@@H]1O[C@H](COP(O)(=S)OP(=O)(O)C(Cl)(Cl)P(=O)(O)O)[C@@H](O)[C@H]1O (single isomer, unassigned) [APPCCl2P-α-S, adenosine 5′-[Pα-thio]-β,γ-(dichloromethylene)triphosphate]",EC50,human P2Y11-R,> 10 µM
"Nc1ncnc2c1ncn2[C@@H]1O[C@H](COP(O)(=S)OP(=O)(O)C(Cl)(Cl)P(=O)(O)O)[C@@H](O)[C@H]1O (single isomer, unassigned; isomer b) [APPCCl2P-α-S (isomer B), adenosine 5′-[Pα-thio]-β,γ-(dichloromethylene)triphosphate]",times more potent than ATP at the P2Y11 receptor,human P2Y11-R,2 fold
same,Hydrolysis by NTPDase2,human NTPDase2; listed as APPCCl2P-α-S B,5.5%
same,Hydrolysis by NTPDase8,human NTPDase8 [1]; listed as APPCCl2P-α-S B,5.3%
same,effect on human NTPDase8 activity,human NTPDase8 [2]; listed as APPCCl2P-α-S B,1.5 ± 0.06%
same,inhibition of the hydrolysis of ATP by NTPDase8,human NTPDase8 [2],did not interfere
same,effect on human NTPDase1 activity,human NTPDase1 [3]; listed as APPCCl2P-α-S B,21.6 ± 1.0%
same,inhibition of the hydrolysis of ATP by NTPDase1,human NTPDase1 [3],did not interfere
same,Hydrolysis by NTPDase1,human NTPDase1 [4]; listed as APPCCl2P-α-S B,5.4%
same,Hydrolysis by NTPDase3,human NTPDase3; listed as APPCCl2P-α-S B,5.4%
"Nc1ncnc2c1ncn2[C@@H]1O[C@H](COP(=O)(O)OP(O)(O)=S)[C@@H](O)[C@H]1O [ADP-β-S, adenosine 5′-[β-thio]diphosphate, reference compound]",Relative hydrolysis by NTPDase8,human NTPDase8 [1],14 ± 0.1 % ± SD of ADP or AP2A hydrolysis
same,inhibition of the hydrolysis of ATP by NTPDase8,human NTPDase8 [2],less than 50%
same,inhibition of the hydrolysis of ATP by NTPDase1,human NTPDase1 [3],less than 50%
same,Relative hydrolysis by NTPDase3,human NTPDase3,2 ± 0.1 % ± SD of ADP or AP2A hydrolysis
"di-adenosine-5′,5″-tetrathiobisphosphonate",Relative hydrolysis by NTPDase8,human NTPDase8 [1],3.0 ± 0.1 % ± SD of ADP or AP2A hydrolysis
same,inhibition of the hydrolysis of ATP by NTPDase8,human NTPDase8 [2],5-20%
same,inhibition of the hydrolysis of ATP by NTPDase1,human NTPDase1 [3],~60%
same,Relative hydrolysis by NTPDase3,human NTPDase3,2.0 ± 0.1 % ± SD of ADP or AP2A hydrolysis
"Nc1ncnc2c1ncn2[C@@H]1O[C@H](COP(O)(=S)OP(=O)(O)CP(=O)(O)O)[C@@H](O)[C@H]1O (single isomer, unassigned; isomer a) [APPCP-α-S (isomer A), adenosine 5′-[Pα-thio]-β,γ-methylenetriphosphate]",agonism at the P2Y11-receptor,human P2Y11-R,not an agonist
same,Hydrolysis by NTPDase2,human NTPDase2; listed as APPCP-α-S A,4.7%
same,Hydrolysis by NTPDase8,human NTPDase8 [1]; listed as APPCP-α-S A,4.4%
same,effect on human NTPDase8 activity,human NTPDase8 [2]; listed as APPCP-α-S A,7.0 ± 0.3%
same,inhibition of the hydrolysis of ATP by NTPDase8,human NTPDase8 [2],did not interfere
same,effect on human NTPDase1 activity,human NTPDase1 [3]; listed as APPCP-α-S A,58.4 ± 2.1%
same,inhibition of the hydrolysis of ATP by NTPDase1,human NTPDase1 [3],did not interfere
same,Hydrolysis by NTPDase1,human NTPDase1 [4]; listed as APPCP-α-S A,4.4%
same,Hydrolysis by NTPDase3,human NTPDase3; listed as APPCP-α-S A,4.2%
